Assay results from ChEMBL document CHEMBL4732232, “Protease targeted COVID-19 drug discovery: What we have learned from the past SARS-CoV inhibitors?” (Eur J Med Chem, 2021).
pIC50, pKi: −log10 of the molar value.

Key:
[1] = Inhibition of SARS CoV 3C-like protease using Dabcyl-KTSAVLQSGFRKME-Edans as substrate by fluorometric assay; set-up: species or system Severe acute respiratory syndrome-related coronavirus
[2] = Inhibition of MERS CoV 3C-like protease using Dabcyl-KTSAVLQSGFRKME-Edans as substrate by fluorometric assay; set-up: species or system Middle East respiratory syndrome-related coronavirus
[3] = Inhibition of SARS CoV 3C-like protease; set-up: species or system Severe acute respiratory syndrome-related coronavirus
[4] = Inhibition of SARS CoV 3C-like protease expressed in Escherichia coli GJ1158 using 2-aminobenzoyl-SVTLQSG-Tyr(NO2)-R as substrate by FRET assay; set-up: species or system Severe acute respiratory syndrome-related coronavirus
[5] = tested on: Severe acute respiratory syndrome-related coronavirus; experiment: Irreversible inhibition of SARS CoV 3C-like protease assessed as ratio of Kinact to Ki using Abz-Ser-Val-Thr-Leu-Gln-Ser-Gly-(NO2)Tyr-Arg as substrate by fluorescence method
[6] = Inhibition of SARS CoV HKU3984 His-tagged 3C-like protease using H2N-TSAVLQSGFRKW-COOH as substrate by HPLC method; set-up: species or system Severe acute respiratory syndrome-related coronavirus
[7] = Competitive inhibition of SARS CoV 3C-like protease using fluorogenic substrate by Lineweaver-Burk plot analysis; set-up: species or system Severe acute respiratory syndrome-related coronavirus
[8] = Inhibition of SARS CoV His-tagged 3C-like protease expressed in Escherichia coli BL21 using Dabcyl-KTSAVLQ-SGFRKME-Edans as substrate by Lineweaver-Burk analysis; set-up: species or system Severe acute respiratory syndrome-related coronavirus
[9] = Inhibition of SARS CoV 3C-like protease using Abz-SVTLQSG-Tyr(NO2)R as substrate by fluorescence method; set-up: species or system Severe acute respiratory syndrome-related coronavirus
[10] = Inhibition of SARS CoV 3C-like protease using 12-mer fluorogenic peptide Dabcyl-KNSTLQSGLRKE-Edans as substrate incubated for 60 mins by fluorometric assay; set-up: species or system Severe acute respiratory syndrome-related coronavirus
[11] = Inhibition of SARS CoV papain-like protease using Arg-Leu-Arg-Gly-Gly-AMC as substrate by fluorescence method; set-up: species or system Severe acute respiratory syndrome-related coronavirus

O=C[C@@H](C[C@H]1CCNC1=O)NC(=O)[C@@H](Cc1ccccc1)NC(=O)/C=C/c1ccc(Cl)cc1F
pIC50 [1]: 6.70
pIC50 [2]: 5.33

O=C(/C=C/c1ccccc1)N[C@@H](CC1CCCCC1)C(=O)N[C@@H](C[C@@H]1CCNC1=O)C(=O)C(=O)NCc1ccccc1
pIC50 [3]: 6.15

O=C(/C=C/c1ccccc1)N[C@@H](Cc1ccccc1)C(=O)N[C@@H](C[C@@H]1CCNC1=O)C(=O)C(=O)NCc1ccccc1
pIC50 [3]: 5.71

Cc1ccc2nc(-c3ccc(N)cc3)sc2c1S(=O)(=O)O
pIC50 [4]: 5.37

CCOC(=O)C1OC1C(=O)N(CCC(N)=O)NC(=O)[C@H](Cc1ccccc1)NC(=O)[C@H](CC(C)C)NC(=O)OCc1ccccc1 (some centres not stated)
Ratio [5]: 1900 M⁻¹ s⁻¹

CC1=C(C(=O)OCCc2ccccc2)C(c2ccccc2[N+](=O)[O-])C2=C(CCCC2=O)N1 (configuration not stated)
pIC50 [6]: 5.60

CC(C)[C@H](NC(=O)[C@H](C)NC(=O)OCc1ccccc1)C(=O)C[C@@H](Cc1c[nH]c2ccccc12)[C@@H](O)[C@H](O)[C@H](Cc1c[nH]c2ccccc12)NC(=O)[C@@H](NC(=O)[C@H](C)NC(=O)OCc1ccccc1)C(C)C
pKi [7]: 7.14

CC(C)[C@H](NC(=O)[C@H](C)NC(=O)OCc1ccccc1)C(=O)C[C@@H](Cc1ccccc1)[C@@H](O)[C@H](O)[C@H](Cc1ccccc1)NC(=O)[C@@H](NC(=O)[C@H](C)NC(=O)OCc1ccccc1)C(C)C
pKi [8]: 6.22

CC(=O)N[C@H](C(=O)N[C@H](C(=O)N[C@@H](CC(C)C)C(=O)N[C@@H](C[C@@H]1CCNC1=O)C(=O)CN1Cc2cccc([N+](=O)[O-])c2C(=O)N1)[C@@H](C)OCc1ccccc1)C(C)C
pIC50 [9]: 6.22

O=C(/C=C/CCc1ccc(O)c(O)c1)CCc1ccc(O)c(O)c1 [DEHYDROHIRSUTANONOL]
pIC50 [10]: 4.44
pIC50 [11]: 5.39
